Test results: PubChem BioAssay AID330 (DTP/NCI, 2004)
Several values for one entry are separate records, joined by “and”; a condition that tells them apart may be missing. Identical values can stand only once. Toxic doses and inconclusive results are not listed. The calls were made as follows: active = survival T/C of 150% or more; inactive = T/C below 125% in these data.

System: P388 leukemia ip, CD2F1 mice, survival T/C
Test: NCI In Vivo Anticancer Drug Screen. Data for tumor model P388 Leukemia (intraperitoneal) in CD2F1 (CDF1) mice
Details: endpoint: median survival time, higher = longer survival
How it was run: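 Mice carrying the transplanted tumor received test compound or vehicle. Survival was recorded in each group, and the value is the treated-group measurement divided by that of the vehicle-treated control group.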

[1] = dose: 50.0 mg/kg/injection, schedule: Q01DX009 (ip), vehicle: saline with Tween-80
[2] = dose: 100.0 mg/kg/injection, schedule: Q01DX009 (ip), vehicle: saline with Tween-80
[3] = dose: 200.0 mg/kg/injection, schedule: Q01DX009 (ip), vehicle: saline with Tween-80
[4] = dose: 50.0 mg/kg/injection, schedule: Q01DX009 (ip), vehicle: saline
[5] = dose: 100.0 mg/kg/injection, schedule: Q01DX009 (ip), vehicle: saline
[6] = dose: 200.0 mg/kg/injection, schedule: Q01DX009 (ip), vehicle: saline
[7] = dose: 50.0 mg/kg/injection, schedule: Q01DX005 (ip), vehicle: saline with Tween-80
[8] = dose: 6.25 mg/kg/injection, schedule: Q01DX009 (ip), vehicle: saline
[9] = dose: 12.5 mg/kg/injection, schedule: Q01DX009 (ip), vehicle: saline
[10] = dose: 25.0 mg/kg/injection, schedule: Q01DX009 (ip), vehicle: saline
[11] = dose: 50.0 mg/kg/injection, schedule: Q01DX005 (ip), vehicle: Klucel (hydroxypropylcellulose) (HPC)
[12] = dose: 100.0 mg/kg/injection, schedule: Q01DX005 (ip), vehicle: Klucel (hydroxypropylcellulose) (HPC)
[13] = dose: 200.0 mg/kg/injection, schedule: Q01DX005 (ip), vehicle: Klucel (hydroxypropylcellulose) (HPC)
[14] = dose: 12.5 mg/kg/injection, schedule: Q01DX005 (ip), vehicle: Klucel (hydroxypropylcellulose) (HPC)

Measured: T/C

CC(C)(C)c1cc2c3c(c1)C(C(F)(F)F)(C(F)(F)F)OS3(O)OC2(C(F)(F)F)C(F)(F)F
inactive: dose: 12.5 mg/kg/injection, schedule: Q01DX005 (ip), vehicle: suspension in saline 103 % of control | dose: 25.0 mg/kg/injection, schedule: Q01DX005 (ip), vehicle: suspension in saline 108 % of control

CCO/C=N/c1[nH]c(C)c(C)c1C#N
inactive: dose: 50.0 mg/kg/injection, schedule: Q01DX009 (ip), vehicle: Klucel (hydroxypropylcellulose) (HPC) 93 % of control | dose: 100.0 mg/kg/injection, schedule: Q01DX009 (ip), vehicle: Klucel (hydroxypropylcellulose) (HPC) 100 % of control | dose: 200.0 mg/kg/injection, schedule: Q01DX009 (ip), vehicle: Klucel (hydroxypropylcellulose) (HPC) 105 % of control

CC1(C)OC(CC(=O)O)C23COC(C(=O)C4(C)C2CCC2(C)C(c5ccoc5)OC(=O)C5OC524)C13 (stereo not given)
inactive: dose: 0.75 mg/kg/injection, schedule: Q01DX009 (ip), vehicle: saline + alcohol 106 % of control | dose: 1.5 mg/kg/injection, schedule: Q01DX009 (ip), vehicle: saline + alcohol 99 % of control | dose: 3.0 mg/kg/injection, schedule: Q01DX009 (ip), vehicle: saline + alcohol 101 % of control | dose: 6.0 mg/kg/injection, schedule: Q01DX009 (ip), vehicle: saline + alcohol 101 % of control

COc1cc(NC(C)CN(CC(C)C)C(C)C)c2ncccc2c1 (stereo not given)
inactive: dose: 50.0 mg/kg/injection, schedule: Q01DX005 (ip), vehicle: saline 104 % of control | dose: 100.0 mg/kg/injection, schedule: Q01DX005 (ip), vehicle: saline 98 % of control

O=C(O)/C(=C\c1ccncc1)c1cccc2ccccc12
inactive: [1] 101 % of control | [2] 101 % of control | [3] 111 % of control | dose: 400.0 mg/kg/injection, schedule: Q01DX009 (ip), vehicle: saline with Tween-80 98 % of control

CCNC(=O)Oc1ccc[nH]c1=O
inactive: dose: 25.0 mg/kg/injection, schedule: Q01DX009 (sc), vehicle: water 100 % of control and 103 % of control | [4] 111 % of control and 114 % of control | dose: 50.0 mg/kg/injection, schedule: Q01DX009 (sc), vehicle: water 104 % of control and 109 % of control | [5] 122 % of control | dose: 100.0 mg/kg/injection, schedule: Q01DX009 (sc), vehicle: water 106 % of control and 109 % of control | [6] 118 % of control | dose: 200.0 mg/kg/injection, schedule: Q01DX009 (sc), vehicle: water 108 % of control and 118 % of control | dose: 400.0 mg/kg/injection, schedule: Q01DX009 (ip), vehicle: saline 119 % of control | dose: 400.0 mg/kg/injection, schedule: Q01DX009 (sc), vehicle: water 113 % of control

CC1(CCBr)C(=O)NC(=O)NC1=O
inactive: [7] 101 % of control | dose: 100.0 mg/kg/injection, schedule: Q01DX005 (ip), vehicle: saline with Tween-80 101 % of control | dose: 200.0 mg/kg/injection, schedule: Q01DX005 (ip), vehicle: saline with Tween-80 105 % of control

COc1ccccc1-n1c(SC)nccc1=O
inactive: dose: 100.0 mg/kg/injection, schedule: Q04DX002 (ip), vehicle: Klucel (hydroxypropylcellulose) (HPC) 100 % of control | dose: 200.0 mg/kg/injection, schedule: Q04DX002 (ip), vehicle: Klucel (hydroxypropylcellulose) (HPC) 100 % of control | dose: 400.0 mg/kg/injection, schedule: Q04DX002 (ip), vehicle: Klucel (hydroxypropylcellulose) (HPC) 94 % of control

CC(O[Si](C)(C)C(C)(C)C)C(=O)Sc1ccccn1 (stereo not given)
inactive: dose: 60.0 mg/kg/injection, schedule: Q01DX005 (ip), vehicle: saline with Tween-80 102 % of control | dose: 120.0 mg/kg/injection, schedule: Q01DX005 (ip), vehicle: saline with Tween-80 103 % of control

Clc1cc(Cl)c(C[N+]23CN4CN(CN(C4)C2)C3)cc1Cl
inactive: [8] 102 % of control | [9] 100 % of control and 107 % of control | [10] 106 % of control and 109 % of control | [1] 122 % of control | [4] 111 % of control and 120 % of control | [5] 117 % of control

CCc1nc(N)nc(N)c1-c1ccc(N(C)Cc2ccccc2)c(N)c1
inactive: [11] 96 % of control | [12] 93 % of control | [13] 103 % of control

CCOc1c(OC)cc(C2c3cc4c(c(OCC)c3CC3COC(=O)C32)OCO4)cc1OC (stereo not given)
inactive: [14] 94 % of control | dose: 25.0 mg/kg/injection, schedule: Q01DX005 (ip), vehicle: Klucel (hydroxypropylcellulose) (HPC) 91 % of control | [11] 86 % of control | [12] 97 % of control

COc1nc2c(nc(N)n2C2OC(COC(C)=O)C(OC(C)=O)C(OC(C)=O)C2OC(C)=O)c(=O)n1C (stereo not given)
inactive: dose: 60.0 mg/kg/injection, schedule: Q01DX005 (ip), vehicle: saline 92 % of control | dose: 240.0 mg/kg/injection, schedule: Q01DX005 (ip), vehicle: saline 92 % of control

O=C(N1CCCCC1Cc1ccccc1)C(Cl)(Cl)Cl (stereo not given)
inactive: dose: 30.0 mg/kg/injection, schedule: Q01DX005 (ip), vehicle: Klucel (hydroxypropylcellulose) (HPC) 101 % of control | dose: 60.0 mg/kg/injection, schedule: Q01DX005 (ip), vehicle: Klucel (hydroxypropylcellulose) (HPC) 101 % of control

Cc1cc2ccccc2c[n+]1CCCCCCCCI
inactive: dose: 6.25 mg/kg/injection, schedule: Q01DX005 (ip), vehicle: saline with Tween-80 110 % of control | dose: 12.5 mg/kg/injection, schedule: Q01DX005 (ip), vehicle: saline with Tween-80 115 % of control | dose: 25.0 mg/kg/injection, schedule: Q01DX005 (ip), vehicle: saline with Tween-80 110 % of control | [7] 108 % of control

Nc1n[nH]c(CO)n1
inactive: [8] 95 % of control | [9] 91 % of control | [10] 104 % of control | [4] 99 % of control

CCSC(=O)c1cc(C(=O)SCC)cc(C(C)(C)C)c1
inactive: [10] 100 % of control and 105 % of control | [1] 100 % of control | [4] 98 % of control and 95 % of control | [2] 114 % of control | [5] 98 % of control and 101 % of control | [3] 124 % of control | [6] 107 % of control and 97 % of control

Cc1nc2ncn(-c3ccccc3)c2c(=O)n1C
inactive: [11] 95 % of control | [12] 90 % of control | [13] 95 % of control

Cc1ncc([N+](=O)[O-])n1CCOc1c(Cl)cc(Cl)cc1CN(C)C1CCCCC1
inactive: dose: 3.12 mg/kg/injection, schedule: Q01DX005 (ip), vehicle: Klucel (hydroxypropylcellulose) (HPC) 100 % of control | dose: 6.25 mg/kg/injection, schedule: Q01DX005 (ip), vehicle: Klucel (hydroxypropylcellulose) (HPC) 98 % of control | [14] 105 % of control
